Laboratory results from patent US5162571A, “Phenol derivatives, their production and use” (Takeda Chemical Industries, Ltd., priority 1987, dated 1992).

Legend:
[1] = test system: lipid peroxides production in rat brain homogenates; assay: Inhibitory action on lipid peroxides production in rat brain homogenates; format: biochemical; conditions: 10^-5 M
Method: Inhibitory action on lipid peroxides production in rat brain homogenates
Method: The male SD rat brain tissue was used as 5% homogenate in phosphate-buffered solution. After incubation of the homogenate for 1 hour at 37° C., the amount of lipid peroxides produced was determined by the thiobarbituric acid method according to the description of Ohkawa et al. (Analytical Biochemistry, 95: 551, 1979)
Test compounds were used as a solution of dimethylsulfoxide. The inhibitory action on lipid peroxide production was expressed as a % inhibition as compared with the amount of production in the vehicle group.

[2] = molecular target: T1, specific [^3 H] U-46619 binding to guinea pig platelet membrane (Cavia porcellus, UniProt A0A286Y4I8); assay: Inhibition of specific [^3 H] U-46619 binding to guinea pig platelet membrane; conditions: [^3 H] U-46619, 25° C., 30 min; read-out: IC50 (Concentration for 50% inhibition)
T1 construct: Platelet membranes were prepared according to the following procedure; from tissue; host or cells: guinea pig platelet membranes
T1 sequence (A0A286Y4I8 1-347): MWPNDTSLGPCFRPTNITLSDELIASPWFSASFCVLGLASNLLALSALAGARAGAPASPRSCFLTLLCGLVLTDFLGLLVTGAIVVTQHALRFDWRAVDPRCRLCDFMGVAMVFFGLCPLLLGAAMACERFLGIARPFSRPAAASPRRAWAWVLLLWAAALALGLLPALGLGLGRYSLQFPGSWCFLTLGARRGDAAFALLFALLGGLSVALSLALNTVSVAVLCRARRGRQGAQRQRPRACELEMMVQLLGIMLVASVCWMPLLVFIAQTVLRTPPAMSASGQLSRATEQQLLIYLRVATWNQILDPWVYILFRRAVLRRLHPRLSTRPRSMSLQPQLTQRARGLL

[3] = Extension of bleeding time; format: in vivo, rat; conditions: one hour before
Method: Extension of bleeding time
Method: Test compounds were administered orally to rats one hour before the experiments. The rats were anesthetized and the tail was cut at 1.5 mm from the tip. Immediately, the tail was hung down into a physiological saline warmed at 37° C. The time required from initiation to stop of bleeding (bleeding time) was measured.

[4] = molecular target: T2, Thromboxane A2 (TXA2) receptor (Oryctolagus cuniculus, UniProt Q6WQI8); assay: Thromboxane A2 (TXA2) receptor antagonism: inhibitory effect on contraction of rabbit aorta by TXA2-mimics; format: cell-based; conditions: U-44069 (10^-7 M)-induced contraction
T2 construct: contraction by TXA2 mimics U-44069 or U-46619
T2 sequence (Q6WQI8 1-233): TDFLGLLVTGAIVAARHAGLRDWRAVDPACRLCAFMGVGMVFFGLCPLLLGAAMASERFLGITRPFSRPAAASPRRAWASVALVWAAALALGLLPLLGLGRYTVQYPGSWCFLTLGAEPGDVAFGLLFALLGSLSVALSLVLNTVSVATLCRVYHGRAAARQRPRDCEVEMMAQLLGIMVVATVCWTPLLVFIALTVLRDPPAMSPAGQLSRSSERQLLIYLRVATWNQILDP

- IC50 [2]: 200 nM
- Bleeding time ([3]; 10 mg/kg oral, control 173 ± 23, * p < 0.05): 272 ± 52 s
- Bleeding time ([3]; 30 mg/kg oral, control 164 ± 27, ** p < 0.01): 258 ± 14 s
- inhibition at 10 µM ([4]; 10^-5 M): 100%
- inhibition at 1 µM ([4]; 10^-6 M): 79%
- inhibition at 0.1 µM ([4]; 10^-7 M): 12%
Compound: Cc1c(C)c(Br)c(C)c(C(CCCCCC(=O)O)c2ccc(F)cc2)c1O (stereo not shown) [Compound 12, 7-(5-bromo-2-hydroxy-3,4,6-trimethylphenyl)-7-(4-fluorophenyl)heptanoic acid]
- Inhibition (%) [1]: 100%
